# Results published in US9029377B2, “Platelet-activating factor receptor antagonists” (Merck Sharp & Dohme Corp., priority 2009, dated 2015).
# Molecular target: PAFR (Homo sapiens, UniProt P25105)
# Experiment: PAF Binding Assay (PAFR binding)
# Sequence of PAFR (P25105 whole entry): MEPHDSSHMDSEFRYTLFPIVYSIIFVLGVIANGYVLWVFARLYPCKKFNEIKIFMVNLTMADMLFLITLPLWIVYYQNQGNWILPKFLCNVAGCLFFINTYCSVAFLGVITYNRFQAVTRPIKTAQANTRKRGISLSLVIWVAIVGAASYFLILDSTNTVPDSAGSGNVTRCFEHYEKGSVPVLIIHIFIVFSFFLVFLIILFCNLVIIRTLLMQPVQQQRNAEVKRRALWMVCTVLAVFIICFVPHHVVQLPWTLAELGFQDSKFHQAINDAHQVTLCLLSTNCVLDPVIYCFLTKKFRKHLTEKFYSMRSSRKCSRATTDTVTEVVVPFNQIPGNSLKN
row,Structure (SMILES),IC50
1,"O=S(=O)(N[C@H]1CCC[C@@H](n2cnnc2)C1)c1cc(-c2cc(Cl)cnc2F)cc(C(F)(F)F)c1 [Compound 3Aab, 3-(5-chloro-2-fluoropyridin-3-yl)-N-[(1S,3R)-3-(4H-1,2,4-triazol-4-yl)cyclohexyl]-5-(trifluoromethyl)benzenesulfonamide]",4 nM
2,"Cc1nncn1[C@@H]1CCC[C@H](NS(=O)(=O)c2ccc(OCCCC(F)(F)F)cc2)C1 [Compound 2Nac, N-[(1S,3R)-3-(3-methyl-4H-1,2,4-triazol-4-yl)cyclohexyl]-4-(4,4,4-trifluorobutoxy)benzenesulfonamide]",4.7 nM
3,"CCCCOc1ccc(S(=O)(=O)N[C@@H]2C[C@H](n3cnnc3C)CC(F)(F)C2)cc1 [Compound 2Qw, 4-butoxy-N-[(1R,5S)-3,3-difluoro-5-(3-methyl-4H-1,2,4-triazol-4-yl)cyclohexyl]benzenesulfonamide]",4.2 nM
4,"CCc1cc(-c2ccc(OC3CCC3)nc2)ccc1S(=O)(=O)N[C@H]1CCC[C@@H](n2cnnc2)C1 [Compound 2Aaq, 4-[6-(cyclobutyloxy)pyridin-3-yl]-2-ethyl-N-[(1S,3R)-3-(4H-1,2,4-triazol-4-yl)cyclohexyl]benzenesulfonamide]",0.8 nM
5,"CCc1cc(-c2ccc(F)cc2)ccc1S(=O)(=O)N[C@H]1CCC[C@@H](n2cnnc2)C1 [Compound 2An, 3-ethyl-4′-fluoro-N-[(1S,3R)-3-(4H-1,2,4-triazol-4-yl)cyclohexyl]benzenesulfonamide]",17 nM
6,"CCc1cc(-c2ccc(OC(F)F)cc2)ccc1S(=O)(=O)N[C@H]1CCC[C@@H](n2cnnc2)C1 [Compound 2Ay, 4′-(difluoromethoxy)-3-ethyl-N-[(1S,3R)-3-(4H-1,2,4-triazol-4-yl)cyclohexyl]biphenyl-4-sulfonamide]",2.5 nM
7,"O=S(=O)(N[C@H]1CCC[C@@H](n2cnnc2)C1)c1ccc(Oc2ncc(C(F)(F)F)cc2Cl)cc1 [Compound 2Mab, 4-{[3-chloro-5-(trifluoromethyl)pyridin-2-yl]oxy}-N-[(1S,3R)-3-(4H-1,2,4-triazol-4-yl)cyclohexyl]benzenesulfonamide]",66 nM
8,"O=S(=O)(N[C@H]1CCC[C@@H](n2cnnc2)C1)c1ccc(-c2ccc(OC(F)(F)F)cc2)cc1F [Compound 2Ig, 3-fluoro-N-[(1S,3R)-3-(4H-1,2,4-triazol-4-yl)cyclohexyl]-4′-(trifluoromethoxy)biphenyl-4-sulfonamide]",16 nM
9,"CCc1cc(-c2c(OC)cccc2OC(F)(F)F)ccc1S(=O)(=O)N[C@H]1CCC[C@@H](n2cnnc2)C1 [Compound 2Aab, 3-ethyl-2′-methoxy-N-[(1S,3R)-3-(4H-1,2,4-triazol-4-yl)cyclohexyl]-6′-(trifluoromethoxy)biphenyl-4-sulfonamide]",54 nM
10,"CCc1cc(-c2ccc(C(F)(F)F)cc2C)ccc1S(=O)(=O)N[C@H]1CCC[C@@H](n2cnnc2)C1 [Compound 2Abn, 3-ethyl-2′-methyl-N-[(1S,3R)-3-(4H-1,2,4-triazol-4-yl)cyclohexyl]-4′-(trifluoromethyl)biphenyl-4-sulfonamide]",22 nM
11,"O=S(=O)(N[C@H]1CCC[C@@H](n2cnnc2)C1)c1ccc(-c2noc(C(F)(F)F)n2)cc1C1CC1 [2 Kb, 2-cyclopropyl-N-[(1S,3R)-3-(4H-1,2,4-triazol-4-yl)cyclohexyl]-4-[5-(trifluoromethyl)-1,2,4-oxadiazol-3-yl]benzenesulfonamide]",16 nM
12,"Cc1nncn1[C@H]1C[C@@H](NS(=O)(=O)c2ccc(-c3noc(C4CC4)n3)cc2)CC(F)(F)C1 [Compound 2Ql, 4-(5-cyclopropyl-1,2,4-oxadiazol-3-yl)-N-[(1R,5S)-3,3-difluoro-5-(3-methyl-4H-1,2,4-triazol-4-yl)cyclohexyl]benzenesulfonamide]",8.2 nM
13,"Cc1nncn1[C@@H]1CCC[C@H](NS(=O)(=O)c2ccc(-c3ccc(OCC(F)(F)F)nc3)c(F)c2)C1 [Compound 2Ff, 3-fluoro-N-[(1S,3R)-3-(3-methyl-4H-1,2,4-triazol-4-yl)cyclohexyl]-4-[6-(2,2,2-trifluoroethoxy)pyridin-3-yl]benzenesulfonamide]",1 nM
14,"Cc1nncn1[C@@H]1CCC[C@H](NS(=O)(=O)c2ccc(C(C)(C)C)cc2)C1 [Compound 2Np, 4-tert-butyl-N-[(1S,3R)-3-(3-methyl-4H-1,2,4-triazol-4-yl)cyclohexyl]benzenesulfonamide]",51 nM
15,"O=S(=O)(N[C@H]1CCC[C@@H](n2cnnc2)C1)c1cc(-c2cncc3ccccc23)cc(C(F)(F)F)c1 [3 Ay, 3-isoquinolin-4-yl-N-[(1S,3R)-3-(4H-1,2,4-triazol-4-yl)cyclohexyl]-5-(trifluoromethyl)benzenesulfonamide]",20 nM
16,"CCCCOc1cc(F)c(S(=O)(=O)N[C@H]2CCC[C@@H](n3cnnc3C)C2)cc1F [Compound 2Nae, 4-butoxy-2,5-difluoro-N-[(1S,3R)-3-(3-methyl-4H-1,2,4-triazol-4-yl)cyclohexyl]benzenesulfonamide]",5.4 nM

# Other lines, results leading:
row,IC50,Structure (SMILES)
1,8.1 nM,"O=S(=O)(N[C@H]1CCC[C@@H](n2cnnc2)C1)c1cc(-c2ccc(C(F)(F)F)cc2)cc(C(F)(F)F)c1 [Compound 3Al, N-[(1S,3R)-3-(4H-1,2,4-triazol-4-yl)cyclohexyl]-4′,5-bis(trifluoromethyl)biphenyl-3-sulfonamide]"
2,20 nM,"O=S(=O)(N[C@H]1CCC[C@@H](n2cnnc2)C1)c1cc(-c2ccc3nc(C4CC4)nn3c2)cc(C(F)(F)F)c1 [Compound 3Aaq, 3-(2-cyclopropyl[1,2,4]triazolo[1,5-a]pyridin-6-yl)-N-[(1S,3R)-3-(4H-1,2,4-triazol-4-yl)cyclohexyl]-5-(trifluoromethyl)benzenesulfonamide]"
3,68 nM,"CCc1cc(-n2cccn2)ccc1S(=O)(=O)N[C@H]1CCC[C@@H](n2cnnc2)C1 [Compound 6a, 2-ethyl-4-(1H-pyrazol-1-yl)-N-[(1S,3R)-3-(4H-1,2,4-triazol-4-yl)cyclohexyl]benzenesulfonamide]"
4,3.3 nM,"O=S(=O)(N[C@H]1CCC[C@@H](n2cnnc2)C1)c1cc(-c2ccc3ncccc3c2)cc(C(F)(F)F)c1 [Compound 3Ap, 3-quinolin-6-yl-N-[(1S,3R)-3-(4H-1,2,4-triazol-4-yl)cyclohexyl]-5-(trifluoromethyl)benzenesulfonamide]"
5,13 nM,"COc1ncccc1-c1cc(OC(F)(F)F)cc(S(=O)(=O)N[C@H]2CCC[C@@H](n3cnnc3)C2)c1 [Compound 3Eb, 3-(2-methoxypyridin-3-yl)-N-[(1S,3R)-3-(4H-1,2,4-triazol-4-yl)cyclohexyl]-5-(trifluoromethoxy)benzenesulfonamide]"
6,5.9 nM,"O=S(=O)(N[C@H]1CCC[C@@H](n2cnnc2)C1)c1cc(-c2ccnc3ccnn23)cc(C(F)(F)F)c1 [Compound 9c, 3-pyrazolo[1,5-a]pyrimidin-7-yl-N-[(1S,3R)-3-(4H-1,2,4-triazol-4-yl)cyclohexyl]-5-(trifluoromethyl)benzenesulfonamide]"
7,1.4 nM,"O=S(=O)(N[C@H]1CCC[C@@H](n2cnnc2)C1)c1cc(-c2cccn3ccnc23)cc(C(F)(F)F)c1 [Compound 3Aau, 3-imidazo[1,2-a]pyridin-8-yl-N-[(1S,3R)-3-(4H-1,2,4-triazol-4-yl)cyclohexyl]-5-(trifluoromethyl)benzenesulfonamide]"
8,9 nM,"COc1ncccc1-c1cc(F)cc(S(=O)(=O)N[C@H]2CCC[C@@H](n3cnnc3)C2)c1 [Compound 3Fb, 3-fluoro-5-(2-methoxypyridin-3-yl)-N-[(1S,3R)-3-(4H-1,2,4-triazol-4-yl)cyclohexyl]benzenesulfonamide]"
